According to patent publication US5191079A, “Quinolinecarboxylic acid derivatives” (priority 1990, dated 1993):

Tested on: Staphylococcus aureus IID 803
Assay: Effect on treatment of general infectious disease (systemic infection in mice), Experiment 4
Assay type: in vivo, Staphylococcus aureus; ddY male mice
Description: Staphylococcus aureus IID 803
The test microorganism was subjected to standing culture in Brain heart infusion broth (manufactured by DIFCO) at 37° C. for 16 to 18 hours. The culture was then diluted with PBS (Dulbecco's phosphate buffered saline) to adjust the concentration of bacteria to 3×10^7 CFU/ml. The mixture was mixed with an equivalent amount of 10% (w/v) Mucin (BACTO MUCIN BACTERIOLOGICAL, manufactured by Difco Co.) to prepare a bacterial suspension. The thus prepared bacterial suspension (0.5 ml each) was intraperitoneally inoculated to ddY male mice (5 weeks age, weighing 22-29 g, 10 mice in each group), to infect the animals, by which systemic infectious model was prepared. One hour after the infection, a suspension of the test compound in 1% (w/v) aqueous gum arabic was orally adiministered to mice.
The mice were daily observed for one week, and from the survival number of mice after one week, the 50% effective dose (ED50) was calculated by Weil method.

## COCC1CN(c2c(F)cc3c(=O)c(C(=O)O)c4scc5n4c3c2N(C)C5)CCO1 (centres unmarked) [Compound (E), 9,1-(Methylimino)methano-7-fluoro-8-(2-methoxymethylmorpholino)-5-oxo-5H-thiazolo[3,2-a]quinoline-4-carboxylic acid]
Experiment 4, in words
  protective effects against infection: excellent protective effects against infection
Staphylococcus aureus, IID803, 168 h, oral, 1 h after i.p. infection, mice, survival after one week, 3×10^7 CFU/ml, read-out: 50% effective dose (ED50)
  ED50: 1.7 mg/kg
